Experimental data as given in ChEMBL document CHEMBL1201862, “PubChem BioAssay data set” (2004).
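Compound exposure: 48 hours, 5 concentrations, 96-well plates. Here, GI50 denotes the concentration required for 50% inhibition of growth.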 The source made the active and inactive calls. Rule as the data show it: active = GI50 up to about 1.1 µM and inactive = higher.

Experiments:
Experiment in all cases: DTP human tumour cell line panel, 48 h
[1] = system: A498
[2] = system: EKVX
[3] = system: HCT-116
[4] = system: HT-29
[5] = system: Hs-578T
[6] = system: KM12
[7] = system: MDA-N
[8] = system: MOLT-4
[9] = system: Malme-3M
[10] = system: NCI-H23
[11] = system: NCI/ADR-RES
[12] = system: PC-3
[13] = system: RPMI-8226
[14] = system: SF-268
[15] = system: SK-MEL-5
[16] = system: SK-OV-3
[17] = system: SR
[18] = system: TK-10
[19] = system: UACC-257
[20] = system: UACC-62

With C1=C(c2ccccc2)NC2=N[C@H]3CCCC[C@@H]3N2C1c1ccccc1 (some centres not stated) the GI50 [1] was 16.4 µM (inactive), the GI50 [2] was 14.4 µM (inactive) and the GI50 [3] was 7.67 µM (inactive). The GI50 [4] was 3.51 µM (inactive), the GI50 [5] was 17.2 µM (inactive) and the GI50 [6] was 10.1 µM (inactive). The GI50 [7] was 15.5 µM (inactive), the GI50 [8] was 7.74 µM (inactive) and the GI50 [9] was 12.8 µM (inactive). For the same compound, the GI50 [10] was 12.7 µM (inactive), the GI50 [11] was 12 µM (inactive) and the GI50 [12] was 11.4 µM (inactive). For the same compound, the GI50 [13] was 4.82 µM (inactive), the GI50 [14] was 21.5 µM (inactive) and the GI50 [15] was 14.6 µM (inactive). The GI50 [16] was 15.8 µM (inactive), the GI50 [17] was 14.2 µM (inactive) and the GI50 [18] was 10.4 µM (inactive). For the same compound, the GI50 [19] was 14.6 µM (inactive) and the GI50 [20] was 15 µM (inactive).
Cn1c(=O)c2nc(CS(=O)(=O)Cc3nc4c(=O)n(C)c(=O)n(C)c4[nH]3)[nH]c2n(C)c1=O was tested, and the GI50 [1] was > 100 µM (inactive), the GI50 [2] was > 100 µM (inactive) and the GI50 [3] was > 100 µM (inactive). The GI50 [4] was > 100 µM (inactive), the GI50 [5] was > 100 µM (inactive) and the GI50 [6] was > 100 µM (inactive). For the same compound, the GI50 [7] was > 100 µM (inactive), the GI50 [8] was > 100 µM (inactive) and the GI50 [9] was > 100 µM (inactive). The GI50 [10] was > 100 µM (inactive), the GI50 [11] was > 100 µM (inactive) and the GI50 [12] was > 100 µM (inactive). The GI50 [13] was > 100 µM (inactive), the GI50 [14] was > 100 µM (inactive) and the GI50 [15] was > 100 µM (inactive). For the same compound, the GI50 [16] was > 100 µM (inactive), the GI50 [17] was > 100 µM (inactive) and the GI50 [18] was > 100 µM (inactive). The GI50 [19] was > 100 µM (inactive) and the GI50 [20] was > 100 µM (inactive).
Cc1cc(C)c(NC(=S)NC(=O)c2ccccc2)cc1C was tested, and the GI50 [1] was > 100 µM (inactive), the GI50 [2] was > 100 µM (inactive) and the GI50 [3] was > 100 µM (inactive). The GI50 [4] was > 100 µM (inactive), the GI50 [5] was > 100 µM (inactive) and the GI50 [6] was > 100 µM (inactive). For the same compound, the GI50 [7] was 78.9 µM (inactive), the GI50 [8] was 93.5 µM (inactive) and the GI50 [9] was > 100 µM (inactive). For the same compound, the GI50 [10] was > 100 µM (inactive), the GI50 [11] was > 100 µM (inactive) and the GI50 [12] was 67.3 µM (inactive). The GI50 [13] was > 100 µM (inactive), the GI50 [14] was > 100 µM (inactive) and the GI50 [15] was 25.2 µM (inactive). The GI50 [16] was > 100 µM (inactive), the GI50 [17] was 37.7 µM (inactive) and the GI50 [18] was > 100 µM (inactive). The GI50 [19] was 84.7 µM (inactive) and the GI50 [20] was > 100 µM (inactive).
For CC(=O)c1c(SCCN2CCCC2)n(-c2ccccc2)c(=S)n(-c2ccccc2)c1=O, the GI50 [1] was 14.3 µM (inactive), the GI50 [2] was 17 µM (inactive) and the GI50 [3] was 6.73 µM (inactive). For the same compound, the GI50 [4] was 6.62 µM (inactive), the GI50 [5] was 17.6 µM (inactive) and the GI50 [6] was 23.2 µM (inactive). The GI50 [7] was 7.03 µM (inactive), the GI50 [8] was 2.41 µM (inactive) and the GI50 [9] was 3.85 µM (inactive). The GI50 [10] was 17.4 µM (inactive), the GI50 [11] was 26.9 µM (inactive) and the GI50 [12] was 3.56 µM (inactive). The GI50 [13] was 1.51 µM (inactive), the GI50 [14] was 16.4 µM (inactive) and the GI50 [15] was 8.55 µM (inactive). The GI50 [16] was 45.3 µM (inactive), the GI50 [17] was 2.28 µM (inactive) and the GI50 [18] was 3.64 µM (inactive). For the same compound, the GI50 [19] was 3.46 µM (inactive) and the GI50 [20] was 6.93 µM (inactive).
For CCOc1cc2c(cc1O)CC[C@@H]1[C@@H]2CC[C@]2(C)C(OS(=O)OC3CC[C@@H]4[C@H]5CCc6cc(O)c(OCC)cc6[C@@H]5CC[C@@]34C)CC[C@@H]12 (some centres not stated), the GI50 [1] was 13.7 µM (inactive), the GI50 [2] was 3.21 µM (inactive) and the GI50 [3] was 0.577 µM (active). For the same compound, the GI50 [4] was 22.6 µM (inactive), the GI50 [5] was 3.25 µM (inactive) and the GI50 [6] was 4.59 µM (inactive). The GI50 [7] was 0.117 µM (active), the GI50 [8] was 1.14 µM (inactive) and the GI50 [9] was 0.168 µM (active). For the same compound, the GI50 [10] was 1.84 µM (inactive), the GI50 [11] was 0.441 µM (active) and the GI50 [12] was 3.94 µM (inactive). For the same compound, the GI50 [13] was 1.63 µM (inactive), the GI50 [14] was 2.44 µM (inactive) and the GI50 [15] was 0.34 µM (active). The GI50 [16] was 1.16 µM (inactive), the GI50 [17] was 0.182 µM (active) and the GI50 [18] was 19.7 µM (inactive). The GI50 [19] was 2.24 µM (inactive) and the GI50 [20] was 1.19 µM (inactive).
With CC(C)(C)C(=O)C(C(=O)C(C)(C)C)C(=O)C(C)(C)C the GI50 [1] was > 100 µM (inactive), the GI50 [2] was > 100 µM (inactive) and the GI50 [3] was > 100 µM (inactive). For the same compound, the GI50 [4] was > 100 µM (inactive), the GI50 [5] was > 100 µM (inactive) and the GI50 [6] was > 100 µM (inactive). The GI50 [7] was > 100 µM (inactive), the GI50 [8] was > 100 µM (inactive) and the GI50 [9] was > 100 µM (inactive). The GI50 [10] was > 100 µM (inactive), the GI50 [11] was > 100 µM (inactive) and the GI50 [12] was > 100 µM (inactive). For the same compound, the GI50 [13] was > 100 µM (inactive), the GI50 [14] was > 100 µM (inactive) and the GI50 [15] was > 100 µM (inactive). For the same compound, the GI50 [16] was 43.5 µM (inactive), the GI50 [17] was > 100 µM (inactive) and the GI50 [18] was > 100 µM (inactive). The GI50 [19] was > 100 µM (inactive).
CN/C(=N\n1cnnc1)OC was tested, and the GI50 [1] was > 100 µM (inactive), the GI50 [2] was > 100 µM (inactive) and the GI50 [3] was > 100 µM (inactive). The GI50 [4] was > 100 µM (inactive), the GI50 [5] was > 100 µM (inactive) and the GI50 [6] was > 100 µM (inactive). The GI50 [7] was > 100 µM (inactive), the GI50 [8] was > 100 µM (inactive) and the GI50 [9] was > 100 µM (inactive). The GI50 [10] was > 100 µM (inactive), the GI50 [11] was > 100 µM (inactive) and the GI50 [12] was > 100 µM (inactive). For the same compound, the GI50 [13] was > 100 µM (inactive), the GI50 [15] was > 100 µM (inactive) and the GI50 [16] was > 100 µM (inactive). The GI50 [17] was > 100 µM (inactive), the GI50 [19] was > 100 µM (inactive) and the GI50 [20] was > 100 µM (inactive).
